Key:
Venetoclax + Vorinostat = compound: CC1(C)CCC(CN2CCN(c3ccc(C(=O)NS(=O)(=O)c4ccc(NCC5CCOCC5)c([N+](=O)[O-])c4)c(Oc4cnc5[nH]ccc5c4)c3)CC2)=C(c2ccc(Cl)cc2)C1 [Venetoclax] + O=C(CCCCCCC(=O)Nc1ccccc1)NO [Vorinostat] (partner 1 µM); experiment: relative viability (nuclei count vs DMSO), 5 days (fraction); higher = more cells survive
Method in brief: (§1)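 One day after seeding in 1536-well plates, lung cancer cell lines were dosed by pin tool. Dosing was either single-drug or a fixed anchor-drug dose plus five library-drug doses (not always all listed) in √10 steps. After 5 days, nuclei were stained in one fix-and-stain step and counted on 4× images, and relative viability is the nuclei count of treated wells over that of vehicle wells, given as the median of duplicate plates.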

Venetoclax + AZD7762 = compound: CC1(C)CCC(CN2CCN(c3ccc(C(=O)NS(=O)(=O)c4ccc(NCC5CCOCC5)c([N+](=O)[O-])c4)c(Oc4cnc5[nH]ccc5c4)c3)CC2)=C(c2ccc(Cl)cc2)C1 [Venetoclax] + NC(=O)Nc1cc(-c2cccc(F)c2)sc1C(=O)N[C@H]1CCCNC1 [AZD7762] (partner 0.2 µM); experiment: as above
Method in brief: as §1

Row | Cell Line | relative viability (Venetoclax + Vorinostat; first compound 0.01 µM) | relative viability (Venetoclax + Vorinostat; first compound 0.03162 µM) | relative viability (Venetoclax + Vorinostat; first compound 0.1 µM) | relative viability (Venetoclax + Vorinostat; first compound 0.3162 µM) | relative viability (Venetoclax + Vorinostat; first compound 1 µM) | relative viability (Venetoclax + AZD7762; first compound 0.01 µM) | relative viability (Venetoclax + AZD7762; first compound 0.03162 µM) | relative viability (Venetoclax + AZD7762; first compound 0.1 µM) | relative viability (Venetoclax + AZD7762; first compound 0.3162 µM) | relative viability (Venetoclax + AZD7762; first compound 1 µM)
1 | NCI-H1437 | 0.8 | 0.888 | 0.808 | 0.709 | 0.788 | 1.14 | 1.14 | 1.11 | 1.08 | 1.07
2 | IA-LM | 0.673 | 1.01 | 0.8 | 0.958 | 1 |  |  |  |  | 
3 | NCI-H23 | 0.565 | 0.752 | 0.54 | 0.619 | 0.521 | 0.198 | 0.268 | 0.279 | 0.262 | 0.199
4 | EPLC-272H | 0.495 | 0.422 | 0.579 | 0.469 | 0.494 | 0.192 | 0.188 | 0.229 | 0.318 | 0.225
5 | NCI-H358 | 0.794 | 0.882 | 0.67 | 0.697 | 0.626 | 0.338 | 0.527 | 0.556 | 0.714 | 0.558
6 | H3255 | 0.782 | 0.899 | 0.897 | 0.777 | 0.733 | 0.875 | 0.999 | 0.944 | 0.901 | 0.782
7 | SK-LU-1 | 0.771 | 0.803 | 0.755 | 0.745 | 0.719 |  |  |  |  | 
8 | NCI-H727 | 1.04 | 1.4 | 1.08 | 1.12 | 1.11 | 0.592 | 0.769 | 0.423 | 0.648 | 0.604
9 | PC-3 [JPC-3] | 0.879 | 1.12 | 0.929 | 0.915 | 0.675 | 0.787 | 0.828 | 0.89 | 0.836 | 0.744
10 | COR-L 105 | 0.789 | 0.763 | 0.866 | 0.899 | 0.818 |  |  |  |  | 
11 | NCI-H322M | 0.982 | 1 | 0.818 | 0.996 | 0.903 | 0.606 | 0.608 | 0.424 | 0.591 | 0.649
12 | NCI-H1395 | 0.7 | 0.838 | 0.673 | 0.907 | 0.896 | 0.402 | 0.442 | 0.392 | 0.434 | 0.405
13 | NCI-H838 | 0.699 | 0.72 | 0.709 | 0.769 | 0.719 | 0.93 | 0.999 | 0.877 | 0.923 | 0.837
14 | NCI-H1993 | 0.747 | 1 | 0.714 | 0.728 | 0.615 | 0.635 | 0.787 | 0.651 | 0.816 | 0.763
15 | NCI-H522 | 1 | 0.849 | 0.96 | 0.839 | 0.896 | 1.01 | 0.769 | 0.85 | 0.923 | 0.689
16 | CAL-12T | 0.684 | 0.782 | 0.683 | 0.865 | 0.56 | 0.584 | 0.644 | 0.638 | 0.636 | 0.435
17 | LCLC-97TM1 | 0.453 | 0.892 | 0.443 | 0.635 | 0.667 | 0.323 | 0.26 | 0.263 | 0.266 | 0.25
18 | NCI-H1355 | 0.626 | 0.618 | 0.625 | 0.692 | 0.577 | 0.723 | 0.733 | 0.705 | 0.716 | 0.652
